Source: patent publication US20240374740A1, “POLY AMPHIPHILIC COMPLEXES FOR THE DELIVERY OF A HYDROPHOBIC ACTIVE AGENT, COMPOSITIONS AND METHODS” (Université de Liège, priority 2021, published 2024)
Values after ≈ are worked out from the molar mass of the structure shown. Each block holds one molecule with its values, some of them ahead of it.

What was measured:
[1] = free drug; cited from earlier work
[2] = Dynamic Light Scattering (DLS) mean size of PACs; type: physicochemical; conditions: ibuprofen formulations by direct dissolution, 2 h after preparation
[3] = cited from earlier work; for solubility in water: free drug, 25° C.
[4] = system: 3D7 cells synchronized at ring stage; test: In vitro antimalarial growth inhibition assay (GIA), flow cytometry after 48 h; type: cell-based, P. falciparum; conditions: Plasmodium falciparum, 3D7, 48 h
Method: Since P. falciparum I usually asynchronous during in vitro culture, the generation of highly synchronized parasite cultures is requested to investigate their pharmacological properties in vitro. […] Samples of the PACs were incubated with the cells for 48 h and then parasitemia was evaluated by flow cytometry after labelling parasite nuclei with fluorescence (growth inhibition assay, GIA).
PACs loaded with atovaquone were analysed with 3D7 cells synchronized at ring stage. Samples were incubated with the cells for 48 h and then parasitemia was evaluated by flow cytometry after labelling parasite nuclei with fluorescence (growth inhibition assay, GIA). The pharmacological activity of atovaquone is expressed in terms of drug concentration needed to inhibit 50% of the cell population (IC50) (FIG. 9).

[5] = Evolution with time of optical density (Do at 405 nm) of curcumin solutions in PBS pH 7.4 at 37° C.; type: physicochemical; conditions: PBS pH 7.4, 37° C.
plasma proteins = conditions: in vivo; cited from earlier work

Molecule: CCCSc1nc(N[C@@H]2C[C@H]2c2ccc(F)c(F)c2)c2nnn([C@@H]3C[C@H](OCCO)[C@@H](O)[C@H]3O)c2n1 [Ticagrelor]
LogP [1]: 2.28

Macroscopic aspect 2 h after dissolution (ibuprofen 5 mg/mL, polymer 45 mg/mL, direct dissolution in water, room temperature): Macroscopic crystals
Cumulant DLS diameter [2]: >1,000,000 nm
Molecule: CC(C)Cc1ccc(C(C)C(=O)O)cc1 (stereo not shown) [Ibuprofen]
solubility in water [3]: 0.21 µg/mL (≈ 1.02 µM)

Molecule: COc1cc(/C=C/C(=O)CC(=O)/C=C/c2ccc(O)c(OC)c2)ccc1O [Curcumin, curcumin]
macroscopic aspect (curcumin 5 mg/ml, direct dissolution in aqueous phase (Example 3)): slightly yellow and less turbid suspension
solubility class in water (free drug) [3]: practically insoluble
solubility in water [3]: < 1 µg/mL
IC50 [4]: 14.2 µM
optical density (Do at 405 nm) ([5]; With BSA (1%), curcumin 2 μg/mL, 1 h): 0.275
optical density (Do at 405 nm) ([5]; With BSA (1%), curcumin 2 μg/mL, 24 h): 0.214
optical density (Do at 405 nm) ([5]; With BSA (1%), curcumin 2 μg/mL, 96 h): 0.437
optical density (Do at 405 nm) ([5]; With BSA (1%), curcumin 10 μg/mL, 1 h): 1.102
optical density (Do at 405 nm) ([5]; With BSA (1%), curcumin 10 μg/mL, 24 h): 1.007
optical density (Do at 405 nm) ([5]; With BSA (1%), curcumin 10 μg/mL, 96 h): 0.701
optical density (Do at 405 nm) ([5]; With BSA (1%), curcumin 20 μg/mL, 1 h): 1.875
optical density (Do at 405 nm) ([5]; With BSA (1%), curcumin 20 μg/mL, 24 h): 1.508
optical density (Do at 405 nm) ([5]; With BSA (1%), curcumin 20 μg/mL, 96 h): 0.899
optical density (Do at 405 nm) ([5]; Without BSA, curcumin 2 μg/mL, 1 h): 0.068
optical density (Do at 405 nm) ([5]; Without BSA, curcumin 2 μg/mL, 24 h): 0.019
optical density (Do at 405 nm) ([5]; Without BSA, curcumin 2 μg/mL, 96 h): 0.001
optical density (Do at 405 nm) ([5]; Without BSA, curcumin 10 μg/mL, 1 h): 0.321
optical density (Do at 405 nm) ([5]; Without BSA, curcumin 10 μg/mL, 24 h): 0.097
optical density (Do at 405 nm) ([5]; Without BSA, curcumin 10 μg/mL, 96 h): 0.064
optical density (Do at 405 nm) ([5]; Without BSA, curcumin 20 μg/mL, 1 h): 0.717
optical density (Do at 405 nm) ([5]; Without BSA, curcumin 20 μg/mL, 24 h): 0.253
optical density (Do at 405 nm) ([5]; Without BSA, curcumin 20 μg/mL, 96 h): 0.113

Molecule: O=C1C(O)=C([C@H]2CC[C@H](c3ccc(Cl)cc3)CC2)C(=O)c2ccccc21 [Atovaquone]
bound to plasma proteins (plasma proteins): 99.9%
solubility class in water (free drug) [3]: practically insoluble
IC50 [4]: 0.00084 µM
LogP [1]: 5.8

Molecule: Ivermectin
LogP [1]: 5.83
